From ChEMBL document CHEMBL1201862, “PubChem BioAssay data set” (2004)
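Five concentrations, 48 hours, 96-well plates. GI50 marks 50% less growth.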 Active and inactive are the calls of the source. Cut-off read from the data, not from the text of the source: active = GI50 up to about 1.1 µM and inactive = higher.

What was measured:
Assay in all cases: inhibition of tumour cell growth, NCI panel, 48 h
[1] = system: 786-0
[2] = system: A498
[3] = system: A549
[4] = system: ACHN
[5] = system: CAKI-1
[6] = system: CCRF-CEM
[7] = system: COLO 205
[8] = system: DLD-1
[9] = system: DMS-114
[10] = system: DMS-273
[11] = system: EKVX
[12] = system: HCC 2998
[13] = system: HCT-116
[14] = system: HCT-15
[15] = system: HL-60
[16] = system: HOP-18
[17] = system: HOP-92
[18] = system: HT-29
[19] = system: IGROV-1
[20] = system: K562
[21] = system: KM-20L2
[22] = system: KM12
[23] = system: LXFL 529
[24] = system: M14
[25] = system: M19-MEL
[26] = system: MOLT-4
[27] = system: Malme-3M
[28] = system: NCI-H226
[29] = system: NCI-H23
[30] = system: NCI-H460
[31] = system: NCI-H522
[32] = system: OVCAR-3
[33] = system: OVCAR-4
[34] = system: OVCAR-8
[35] = system: RPMI-8226
[36] = system: RXF 393
[37] = system: SF-268
[38] = system: SF-295
[39] = system: SF-539
[40] = system: SK-MEL-28
[41] = system: SK-MEL-2
[42] = system: SK-MEL-5
[43] = system: SK-OV-3
[44] = system: SN12C
[45] = system: SNB-19
[46] = system: SNB-75
[47] = system: SR
[48] = system: SW-620
[49] = system: TK-10
[50] = system: U-251
[51] = system: UO-31
[52] = system: HOP-62
[53] = system: OVCAR-5
[54] = system: SNB-78
[55] = system: UACC-257
[56] = system: UACC-62
[57] = system: LOX IMVI

`Cc1ccc2c(c1CCCC(C)(C)O)C(=O)C(O)=C(C(C)C)C2=O` was tested, and the GI50 [1] was > 100 µM (inactive), the GI50 [2] was > 100 µM (inactive) and the GI50 [3] was 50.6 µM (inactive). The GI50 [4] was 63 µM (inactive), the GI50 [5] was > 100 µM (inactive) and the GI50 [6] was 32.2 µM (inactive). For the same molecule, the GI50 [7] was > 100 µM (inactive), the GI50 [8] was > 100 µM (inactive) and the GI50 [9] was 39.1 µM (inactive). For the same molecule, the GI50 [10] was 95.5 µM (inactive), the GI50 [11] was 47.2 µM (inactive) and the GI50 [12] was > 100 µM (inactive). The GI50 [13] was 60.5 µM (inactive), the GI50 [14] was 41.9 µM and the GI50 [15] was 46.6 µM (inactive). For the same molecule, the GI50 [16] was > 100 µM (inactive), the GI50 [17] was > 100 µM (inactive) and the GI50 [18] was > 100 µM (inactive). The GI50 [19] was 90.4 µM (inactive), the GI50 [20] was 48.1 µM (inactive) and the GI50 [21] was > 100 µM (inactive). For the same molecule, the GI50 [22] was > 100 µM (inactive), the GI50 [23] was 62.1 µM (inactive) and the GI50 [24] was > 100 µM (inactive). For the same molecule, the GI50 [25] was 96.6 µM (inactive), the GI50 [26] was 60.1 µM (inactive) and the GI50 [27] was > 100 µM (inactive). The GI50 [28] was > 100 µM (inactive), the GI50 [29] was 59.3 µM (inactive) and the GI50 [30] was 47.2 µM (inactive). For the same molecule, the GI50 [31] was > 100 µM (inactive), the GI50 [32] was 66.7 µM (inactive) and the GI50 [33] was > 100 µM (inactive). The GI50 [34] was 62.5 µM (inactive), the GI50 [35] was 39.1 µM (inactive) and the GI50 [36] was 53.5 µM (inactive). For the same molecule, the GI50 [37] was 59.4 µM (inactive), the GI50 [38] was 81.7 µM (inactive) and the GI50 [39] was > 100 µM (inactive). For the same molecule, the GI50 [40] was > 100 µM (inactive), the GI50 [41] was 36.7 µM (inactive) and the GI50 [42] was > 100 µM (inactive). For the same molecule, the GI50 [43] was > 100 µM (inactive), the GI50 [44] was 78.3 µM (inactive) and the GI50 [45] was > 100 µM (inactive). The GI50 [46] was > 100 µM (inactive), the GI50 [47] was 41.2 µM (inactive) and the GI50 [48] was > 100 µM (inactive). For the same molecule, the GI50 [49] was > 100 µM (inactive), the GI50 [50] was 53.1 µM (inactive) and the GI50 [51] was 76 µM (inactive).
`[N-]=[N+]=NC1(c2ccccc2)C(=O)c2cccc3c2N(CCC3)C1=O` (configuration not stated) was tested, and the GI50 [1] was > 100 µM (inactive), the GI50 [2] was 54.6 µM (inactive) and the GI50 [4] was 54.1 µM (inactive). For the same molecule, the GI50 [7] was 88.3 µM (inactive), the GI50 [9] was 44.5 µM (inactive) and the GI50 [15] was 21.4 µM (inactive). For the same molecule, the GI50 [52] was > 100 µM (inactive), the GI50 [17] was 33.6 µM (inactive) and the GI50 [18] was 47.4 µM (inactive). The GI50 [19] was 84.9 µM (inactive), the GI50 [20] was 27.7 µM (inactive) and the GI50 [21] was > 100 µM (inactive). The GI50 [22] was 43.4 µM (inactive), the GI50 [23] was 56.9 µM (inactive) and the GI50 [24] was 36.9 µM (inactive). The GI50 [25] was 60.7 µM (inactive), the GI50 [26] was 31.8 µM (inactive) and the GI50 [29] was 49.7 µM (inactive). For the same molecule, the GI50 [30] was 92.3 µM (inactive), the GI50 [31] was 27 µM (inactive) and the GI50 [32] was 29.9 µM (inactive). For the same molecule, the GI50 [33] was 55.8 µM (inactive), the GI50 [53] was > 100 µM (inactive) and the GI50 [35] was 27.7 µM (inactive). For the same molecule, the GI50 [36] was > 100 µM (inactive), the GI50 [37] was 94.2 µM (inactive) and the GI50 [38] was 34.5 µM (inactive). The GI50 [40] was > 100 µM (inactive), the GI50 [41] was > 100 µM (inactive) and the GI50 [43] was 92.9 µM (inactive). For the same molecule, the GI50 [45] was 97.5 µM (inactive), the GI50 [46] was 31.8 µM (inactive) and the GI50 [54] was 45.1 µM (inactive). The GI50 [47] was 36 µM (inactive), the GI50 [50] was 72.3 µM (inactive) and the GI50 [55] was 32.3 µM (inactive). For the same molecule, the GI50 [56] was 92.7 µM (inactive) and the GI50 [51] was 18.1 µM (inactive).
For `CC(C)=CC(=O)C/C(=N\NC(N)=S)C(=O)Nc1ccc(Cl)cc1`, the GI50 [1] was > 100 µM (inactive), the GI50 [2] was > 100 µM (inactive) and the GI50 [3] was > 100 µM (inactive). The GI50 [4] was > 100 µM (inactive), the GI50 [5] was > 100 µM (inactive) and the GI50 [6] was > 100 µM (inactive). The GI50 [7] was > 100 µM (inactive), the GI50 [8] was > 100 µM (inactive) and the GI50 [9] was > 100 µM (inactive). The GI50 [10] was > 100 µM (inactive), the GI50 [11] was > 100 µM (inactive) and the GI50 [12] was > 100 µM (inactive). The GI50 [13] was > 100 µM (inactive), the GI50 [14] was over 100 µM and the GI50 [15] was > 100 µM (inactive). For the same molecule, the GI50 [16] was > 100 µM (inactive), the GI50 [18] was > 100 µM (inactive) and the GI50 [19] was > 100 µM (inactive). For the same molecule, the GI50 [20] was > 100 µM (inactive), the GI50 [21] was > 100 µM (inactive) and the GI50 [22] was > 100 µM (inactive). The GI50 [57] was > 100 µM (inactive), the GI50 [23] was > 100 µM (inactive) and the GI50 [24] was > 100 µM (inactive). For the same molecule, the GI50 [25] was > 100 µM (inactive), the GI50 [26] was > 100 µM (inactive) and the GI50 [27] was > 100 µM (inactive). For the same molecule, the GI50 [28] was > 100 µM (inactive), the GI50 [29] was > 100 µM (inactive) and the GI50 [30] was > 100 µM (inactive). For the same molecule, the GI50 [32] was > 100 µM (inactive), the GI50 [33] was > 100 µM (inactive) and the GI50 [53] was > 100 µM (inactive). For the same molecule, the GI50 [34] was > 100 µM (inactive), the GI50 [35] was > 100 µM (inactive) and the GI50 [36] was > 100 µM (inactive). For the same molecule, the GI50 [37] was > 100 µM (inactive), the GI50 [38] was > 100 µM (inactive) and the GI50 [39] was > 100 µM (inactive). The GI50 [40] was > 100 µM (inactive), the GI50 [41] was > 100 µM (inactive) and the GI50 [42] was > 100 µM (inactive). The GI50 [43] was > 100 µM (inactive), the GI50 [44] was > 100 µM (inactive) and the GI50 [45] was > 100 µM (inactive). The GI50 [46] was 79.8 µM (inactive), the GI50 [54] was > 100 µM (inactive) and the GI50 [48] was > 100 µM (inactive). The GI50 [49] was > 100 µM (inactive), the GI50 [50] was > 100 µM (inactive) and the GI50 [55] was > 100 µM (inactive). The GI50 [56] was > 100 µM (inactive) and the GI50 [51] was > 100 µM (inactive).
